Experiment: T1 relaxation in human full blood
Format: physicochemical
Details: human full blood at 37° C.

T1 relaxation: about 42 s
SMILES: CC(=O)C(=O)O [[1-^13C]pyruvate, ^13C1-pyruvate]

— patent US20120128593A1, “USE OF A MAGNETIC RESONANCE IMAGING MEDIUM COMPRISING HYPERPOLARIZED 13C PYRUVATE FOR THE DETECTION OF INFLAMMATION OR INFECTION” (priority 2010, published 2012)
